Experimental data as given in ChEMBL document CHEMBL3616410, “Linked pyridinyl-thiadiazoles: Design and synthesis as potential candidate for treatment of XDR and MDR tuberculosis” (Eur J Med Chem, 2015).
Converted amounts (≈) assume the structure as drawn.

How the values were obtained:
Format in all cases: functional
[1] = system: Mycobacterium tuberculosis; assay: Antimycobacterial activity against multi-drug resistant Mycobacterium tuberculosis TN772 after 5 days by spectrophotometry; conditions: TN772, 120 h
[2] = system: Mycobacterium tuberculosis; assay: Antimycobacterial activity against multi-drug resistant Mycobacterium tuberculosis TN565 after 5 days by spectrophotometry; conditions: TN565, 120 h
[3] = system: Mycobacterium tuberculosis; assay: Antimycobacterial activity against multi-drug resistant Mycobacterium tuberculosis TN715 after 5 days by spectrophotometry; conditions: TN715, 120 h
[4] = system: Mycobacterium tuberculosis; assay: Antimycobacterial activity against multi-drug resistant Mycobacterium tuberculosis TN1811 after 5 days by spectrophotometry; conditions: TN1811, 120 h
[5] = system: Mycobacterium tuberculosis; assay: Antimycobacterial activity against multi-drug resistant Mycobacterium tuberculosis TN1618 after 5 days by spectrophotometry; conditions: TN1618, 120 h
[6] = system: Mycobacterium tuberculosis; assay: Antimycobacterial activity against multi-drug resistant Mycobacterium tuberculosis TN2557 after 5 days by spectrophotometry; conditions: TN2557, 120 h
[7] = system: Mycobacterium tuberculosis; assay: Antimycobacterial activity against multi-drug resistant Mycobacterium tuberculosis TN702 after 5 days by spectrophotometry; conditions: TN702, 120 h
[8] = system: Mycobacterium tuberculosis; assay: Antimycobacterial activity against multi-drug resistant Mycobacterium tuberculosis TN1195 after 5 days by spectrophotometry; conditions: TN1195, 120 h
[9] = system: Mycobacterium tuberculosis; assay: Antimycobacterial activity against multi-drug resistant Mycobacterium tuberculosis TN1314 after 5 days by spectrophotometry; conditions: TN1314, 120 h
[10] = system: Mycobacterium tuberculosis; assay: Antimycobacterial activity against multi-drug resistant Mycobacterium tuberculosis TN768 after 5 days by spectrophotometry; conditions: TN768, 120 h
[11] = system: Mycobacterium tuberculosis; assay: Antimycobacterial activity against multi-drug resistant Mycobacterium tuberculosis TN576 after 5 days by spectrophotometry; conditions: TN576, 120 h

Compound: O=C(CCSc1nnc(-c2ccncc2)s1)Nc1ccc(Cl)cc1
- MIC [1]: 0.03 µg/mL (≈ 0.0796 µM)
- MIC [2]: 0.06 µg/mL (≈ 0.159 µM)
- MIC [3]: 0.06 µg/mL (≈ 0.159 µM)
- MIC [4]: 0.03 µg/mL (≈ 0.0796 µM)
- MIC [5]: 0.06 µg/mL (≈ 0.159 µM)
- MIC [6]: 0.13 µg/mL (≈ 0.345 µM)
- MIC [7]: 0.25 µg/mL (≈ 0.663 µM)
- MIC [8]: 0.25 µg/mL (≈ 0.663 µM)
- MIC [9]: 0.03 µg/mL (≈ 0.0796 µM)
- MIC [10]: 0.06 µg/mL (≈ 0.159 µM)
- MIC [11]: 0.06 µg/mL (≈ 0.159 µM)
